# Laboratory results as given in article PMC11171933, “Rapid Determination of Kinetic Constants for Slow-Binding Inhibitors and Inactivators of Human Histone Deacetylase 8” (International Journal of Molecular Sciences, 2024).
# Entries after “also recorded” stand apart in the source; their conditions may differ. Like-named read-outs stand apart in the source and are kept apart here.
# Legend:
# CYP3A4 [1] = target: T1, CYP3A4 (Homo sapiens, UniProt P08684); test: Inactivation kinetics of CYP3A4 (literature data and reanalysis)
# Description: (§1) Firstly, the remaining enzyme activities were extracted from the data sets for all inactivator concentrations and plotted against the respective preincubation times used. Secondly, the resulting decay curves for different inactivator concentrations were fitted to mono-exponential functions, thus yielding observed inactivation rates kobs for all inactivator concentrations.
# human HDAC8 = target: T2, human HDAC8 (Homo sapiens, UniProt Q9BY41); test: Time-dependent fluorometric HDAC8 enzyme activity assay (dose-response curves after different pre-incubation times); conditions: for Binding / inhibition mechanism classification: from time-dependent dose-response curves and kobs vs [I] plot; for kinact: read-out: kinact (min^−1); for kinact/KI: read-out: kinact/KI (M^−1s^−1)
# T2 sequence (Q9BY41 1-377): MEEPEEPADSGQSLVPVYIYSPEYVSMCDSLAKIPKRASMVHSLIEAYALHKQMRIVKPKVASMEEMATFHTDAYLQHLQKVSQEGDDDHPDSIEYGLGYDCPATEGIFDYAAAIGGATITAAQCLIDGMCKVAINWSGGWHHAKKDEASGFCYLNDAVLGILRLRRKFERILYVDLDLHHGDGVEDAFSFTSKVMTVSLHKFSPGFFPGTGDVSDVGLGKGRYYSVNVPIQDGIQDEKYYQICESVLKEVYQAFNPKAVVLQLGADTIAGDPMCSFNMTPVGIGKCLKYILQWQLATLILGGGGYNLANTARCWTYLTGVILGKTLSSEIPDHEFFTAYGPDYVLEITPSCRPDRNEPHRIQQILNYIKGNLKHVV
# Description: HDAC8 activity was determined using a fluorometric assay, as previously described [44]. […] The enzyme reaction was initiated by adding 20 μM of the substrate Boc-Lys(TFA)-AMC (Bachem, Bubendorf, Switzerland). […] The measurements were carried out using a fluorescence microplate reader (PHERAstar FS, BMG LABTECH, Ortenberg, Germany) with fluorescence excitation at 360 nm and emission at 460 nm. IC50 values were calculated using GraphPad Prism 9 by generating dose–response curves and fitting them to a 4-parameter fit model [50]. The results represent the mean ± SD of three independent experiments.
# The binding constant Ki for the 1-step binding mechanism in Equation (5) was calculated as follows:(5) Ki=koff/kon
# A plot of kobs versus inhibitor or inactivator concentration ([I]) allows distinguishing between 1-step or 2-step behavior: a straight line indicates 1-step, and a saturation curve indicates a 2-step mechanism. Kinetic parameters were obtained from fitting kobs vs. [I] data to the following functions for the indicated mechanism:
# Reversible 1-step binding (see Equation (1)):(8) kobs=kon[I]+koff where kon and koff are association and dissociation rate constants, respectively.
# Reversible 2-step binding (see Equation (2)):(9) kobs=k−r+kr/1+IC50/[I] where kr and k−r are forward and reverse isomerization rate constants of the second step.
# Irreversible 1-step inactivation (see Equation (3)):(10) kobs=kinact/KI[I] where kinact is the inactivation rate, KI is [I], and kinact is the half-maximum.
# Irreversible 2-step inactivation (see Equation (4)):(11) kobs=kinact[I]/KI +[I]
# CYP2C8 [2] = target: T3, CYP2C8 (Homo sapiens, UniProt P10632); test: Inactivation kinetics of CYP2C8 (literature data and reanalysis)
# T3 sequence (P10632 1-490): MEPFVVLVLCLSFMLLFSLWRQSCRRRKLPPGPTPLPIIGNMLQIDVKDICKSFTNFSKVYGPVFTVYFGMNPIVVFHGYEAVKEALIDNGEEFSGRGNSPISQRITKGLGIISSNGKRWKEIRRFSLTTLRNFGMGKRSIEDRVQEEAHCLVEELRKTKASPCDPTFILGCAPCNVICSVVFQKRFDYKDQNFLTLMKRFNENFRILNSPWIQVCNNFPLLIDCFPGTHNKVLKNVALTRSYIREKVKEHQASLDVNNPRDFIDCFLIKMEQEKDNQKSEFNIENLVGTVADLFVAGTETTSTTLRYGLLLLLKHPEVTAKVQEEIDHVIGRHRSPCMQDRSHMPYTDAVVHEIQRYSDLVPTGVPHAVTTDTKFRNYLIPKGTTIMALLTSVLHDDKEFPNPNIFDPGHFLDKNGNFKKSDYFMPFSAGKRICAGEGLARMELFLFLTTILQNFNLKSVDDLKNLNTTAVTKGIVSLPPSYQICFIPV
# Description: as §1
# CYP3A4 [3] = target: T1, CYP3A4; conditions: CYP3A4 inactivation ref 38, cited from earlier work
# [4] = design: method as in PMID 5970483; conditions: pH 8 ref 48; cited from earlier work
# [5] = design: method as in PMID 5970483; conditions: pH of 7.0 ref 48; cited from earlier work
# CYP2C8 [6] = target: T3, CYP2C8; conditions: CYP2C8 inactivation ref 36, cited from earlier work
# HDAC8 [7] = conditions: read-out: IC50 (µM) (Lit.), cited from earlier work
# HDAC8 [8] = target: HDAC8; design: method as in PMID 24882269; conditions: binding affinity to HDAC8 ref 41; cited from earlier work
# HIV protease = system: HIV protease; design: method as in PMID 17928344; conditions: HIV protease ref 18; cited from earlier work
# T1 sequence (P08684 2-503): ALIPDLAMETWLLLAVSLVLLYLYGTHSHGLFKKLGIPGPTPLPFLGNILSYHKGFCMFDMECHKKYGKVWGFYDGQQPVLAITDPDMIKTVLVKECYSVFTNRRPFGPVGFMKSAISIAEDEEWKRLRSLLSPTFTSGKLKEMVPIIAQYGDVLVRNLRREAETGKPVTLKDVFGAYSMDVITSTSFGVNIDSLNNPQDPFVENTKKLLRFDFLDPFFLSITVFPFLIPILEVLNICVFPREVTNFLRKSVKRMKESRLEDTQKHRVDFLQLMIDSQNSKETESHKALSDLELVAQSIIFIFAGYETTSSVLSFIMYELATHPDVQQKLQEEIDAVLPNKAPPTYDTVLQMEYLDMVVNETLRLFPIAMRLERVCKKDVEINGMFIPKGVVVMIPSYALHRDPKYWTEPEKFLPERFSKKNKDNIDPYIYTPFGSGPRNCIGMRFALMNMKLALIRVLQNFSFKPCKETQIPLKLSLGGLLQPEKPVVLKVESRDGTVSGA
smiles,measurement,setting,value
CC(C)=CCC/C(C)=C/COc1c2ccoc2cc2oc(=O)ccc12 [Bergamottin],Ki,CYP3A4 [1]; human,12 ± 5 µM
same,kinact,CYP3A4 [1]; human,0.0065 s⁻¹
"O=c1c2ccccc2[se]n1-c1ccccc1 [Ebselen, reference compound]",IC50,human HDAC8,80 ± 30 nM
same,Binding / inhibition mechanism classification,human HDAC8,rapidly inactivated HDAC8; also recorded: fast covalent inactivators
same,kinact,human HDAC8,> 2 min⁻¹
"C#C[C@]1(O)CC[C@H]2[C@@H]3CCc4cc(O)ccc4[C@H]3CC[C@@]21C [Ethynyl-estradiol, reference compound]",Ki,CYP3A4 [1]; human,5.4 ± 2.5 µM
NNC(=O)c1ccncc1 [Isoniazid],Ki,CYP2C8 [2]; human,280 ± 40 µM
same,kinact,CYP2C8 [2]; human,0.0006 s⁻¹
CC/C(=C(\c1ccccc1)c1ccc(OCCNC)cc1)c1ccccc1 [N-desmethy-ltamoxifen],"kinact (min^−1), Reanalysis","CYP3A4 [1]; CYP3A4, reanalysis of literature data (refs 37-39) with two-step fit of kobs vs [I]",0.083 ± 0.007 min⁻¹
same,Ki,"CYP3A4 [1]; read-out: KI (µM), Reanalysis, CYP3A4, reanalysis of literature data (refs 37-39) with two-step fit of kobs vs [I]",2.5 ± 1 µM
same,"kinact (min^−1), Literature",CYP3A4 [3],0.08 min⁻¹
same,Ki,"CYP3A4 [3]; read-out: KI (µM), Literature",2.6 µM
"CCN1C(=O)C=CC1=O [NEM, N-ethylmaleimide, reference compound]",second-order rate constant for N-ethylmaleimide reaction with cysteine,[4],"15,300 M^−1s^−1"
same,"rate constant, times lower than that of cysteine",[5],more than 100 times
same,IC50,human HDAC8,700 to 42000 nM
same,Binding / inhibition mechanism classification,human HDAC8,unspecific one-step affinity labeling; also recorded: slow inactivation behavior
same,kinact/KI,human HDAC8,133 ± 3 M⁻¹ s⁻¹
CNCCC=C1c2ccccc2CCc2ccccc21 [Nortriptyine],"kinact (min^−1), Reanalysis","CYP2C8 [2]; CYP2C8, reanalysis of literature data (ref 36) with two-step fit of kobs vs [I]",0.044 ± 0.003 min⁻¹
same,Ki,"CYP2C8 [2]; read-out: KI (µM), Reanalysis, CYP2C8, reanalysis of literature data (ref 36) with two-step fit of kobs vs [I]",66 ± 12 µM
same,"kinact (min^−1), Literature",CYP2C8 [6],0.036 min⁻¹
same,Ki,"CYP2C8 [6]; read-out: KI (µM), Literature",49.9 µM
N=C1Sc2ccccc2C2=NCCCN12 [P2742],IC50,HDAC8 [7]; literature value ref 47,[…]
"COc1ccc(Cn2ccc3ccc(C(=O)NO)cc32)cc1 [PCI-34051, reference compound]",IC50,HDAC8 [7]; literature value ref 43,[…]
same,Binding / inhibition mechanism classification,human HDAC8,fast-reversible inhibitors
NNCCc1ccccc1 [Phenelzine],Ki,CYP2C8 [2]; human,0.84 ± 0.24 µM
same,kinact,CYP2C8 [2]; human,0.0035 s⁻¹
"O=C(CCCCCCC(=O)Nc1ccccc1)NO [SAHA, suberoylanilide hydroxamic acid, reference compound]",Binding / inhibition mechanism classification,human HDAC8,fast-reversible inhibitors
O=C(CCCCCCC(=O)C(F)(F)F)Nc1ccccc1 [SATFMK],IC50,HDAC8 [7]; literature value ref 42,0.021 µM
same,Kd,HDAC8 [8],5.6 nM
COC(=O)c1ccc(/C=C(\C#N)C(=O)C(F)(F)F)cc1 [SVE04],IC50,human HDAC8,4200 ± 1100 nM
same,Ki,human HDAC8,1300 nM
same,Binding / inhibition mechanism classification,human HDAC8,fast reversible HDAC8 inhibitors; also recorded: fast reversible binding
COc1ccc(CC(C#N)C(=O)O)cc1 (centres unmarked) [SVE27],IC50,human HDAC8,2600 ± 400 nM
same,Ki,human HDAC8,800 nM
same,Binding / inhibition mechanism classification,human HDAC8,fast reversible HDAC8 inhibitors; also recorded: fast reversible binding
Cc1cc(C)cc(CSc2nc(Cl)ns2)c1 [TJ-19-24],IC50,human HDAC8,400 to 4000 nM
same,Ki,human HDAC8,5900 ± 800 nM
same,Binding / inhibition mechanism classification,human HDAC8,"slow two-step inactivators or reversible inhibitors, with a very low reverse isomerization rate; also recorded: slow covalent inactivator; also recorded: slow two-step inactivation"
same,kinact,human HDAC8,1 min⁻¹
same,kinact/KI,human HDAC8,2820 M⁻¹ s⁻¹
Cc1cc(C)cc(CS(=O)(=O)c2nc(Cl)ns2)c1 [TJ-19-28],IC50,human HDAC8,300 to 3000 nM
same,Ki,human HDAC8,12000 ± 3000 nM
same,Binding / inhibition mechanism classification,human HDAC8,two-step inactivation mechanism; also recorded: irreversible inactivation mechanism
same,kinact,human HDAC8,1.8 min⁻¹
same,kinact/KI,human HDAC8,2500 M⁻¹ s⁻¹
CC(C)CN(C[C@@H](O)[C@H](Cc1ccccc1)NC(=O)O[C@H]1CO[C@H]2OCC[C@H]21)S(=O)(=O)c1ccc(N)cc1 [darunavir],residence time (RT),HIV protease,247 h
CC(C)(C)NC(=O)[C@@H]1CN(Cc2cccnc2)CCN1C[C@@H](O)C[C@@H](Cc1ccccc1)C(=O)N[C@H]1c2ccccc2C[C@H]1O [indinavir],residence time (RT),HIV protease,0.3 h
